Experimental data published in publication PMC4764975, “Probing the enzyme kinetics, allosteric modulation and activation of α1- and α2-subunit-containing AMP-activated protein kinase (AMPK) heterotrimeric complexes by pharmacological and physiological activators” (Biochemical Journal, 2016).
“Also recorded” adds a separate entry of the source. Like-named read-outs stand apart in the source and are kept apart here.

Legend:
AMPK α2β1γ1 = target: T1, AMPK α2β1γ1 (Homo sapiens, UniProt P54619+P54646+Q9Y478); experiment: Protection of pAMPK α-pThr172/174 from PP2Aα (slot-blot ELISA); type: biochemical
T1 construct: Recombinant full-length AMPK heterotrimeric complexes α1β1γ1, α1β2γ1, α1β2γ3, α2β1γ1, α2β2γ1 and α2β2γ3 were cloned; 6X-His (N); made in house; host or cells: E. coli BL21-CodonPlus (DE3)-RIPL
T1 sequence (P54646 whole entry): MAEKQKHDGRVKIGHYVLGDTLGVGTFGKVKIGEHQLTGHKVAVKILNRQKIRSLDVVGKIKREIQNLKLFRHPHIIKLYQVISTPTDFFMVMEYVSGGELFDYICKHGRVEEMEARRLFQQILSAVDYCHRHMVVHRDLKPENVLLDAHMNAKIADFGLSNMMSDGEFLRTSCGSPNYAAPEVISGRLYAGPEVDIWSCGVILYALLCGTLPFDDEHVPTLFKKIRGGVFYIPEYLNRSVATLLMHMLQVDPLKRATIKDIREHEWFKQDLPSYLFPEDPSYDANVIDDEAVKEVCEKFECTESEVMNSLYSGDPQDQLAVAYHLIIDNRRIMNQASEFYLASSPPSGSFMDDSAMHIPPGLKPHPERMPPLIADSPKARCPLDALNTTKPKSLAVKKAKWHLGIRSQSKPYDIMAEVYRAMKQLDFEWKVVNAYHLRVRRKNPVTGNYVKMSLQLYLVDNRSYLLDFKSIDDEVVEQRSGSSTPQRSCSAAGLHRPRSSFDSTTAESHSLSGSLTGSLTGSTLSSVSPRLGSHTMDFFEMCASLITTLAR
T1 sequence (Q9Y478 whole entry): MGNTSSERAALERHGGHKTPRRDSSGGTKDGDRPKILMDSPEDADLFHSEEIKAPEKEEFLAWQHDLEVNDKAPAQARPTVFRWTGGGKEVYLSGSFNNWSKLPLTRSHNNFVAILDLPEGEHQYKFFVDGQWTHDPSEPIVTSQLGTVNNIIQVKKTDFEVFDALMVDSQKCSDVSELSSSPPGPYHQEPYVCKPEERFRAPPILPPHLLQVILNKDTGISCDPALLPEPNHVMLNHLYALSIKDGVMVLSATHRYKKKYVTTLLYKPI
T1 sequence (P54619 whole entry): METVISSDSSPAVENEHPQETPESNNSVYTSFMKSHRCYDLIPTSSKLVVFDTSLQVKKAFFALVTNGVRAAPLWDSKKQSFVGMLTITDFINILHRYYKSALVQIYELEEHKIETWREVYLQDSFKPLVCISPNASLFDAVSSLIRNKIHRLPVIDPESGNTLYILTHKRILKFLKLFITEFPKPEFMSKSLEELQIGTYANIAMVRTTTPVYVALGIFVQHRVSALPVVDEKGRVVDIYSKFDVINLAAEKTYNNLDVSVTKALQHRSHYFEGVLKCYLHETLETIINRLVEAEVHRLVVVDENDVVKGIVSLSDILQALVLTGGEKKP
Method: (§1) Test compound was previously diluted in half-log increments, starting at 40 μM in 100% DMSO, diluted 10-fold in assay buffer and dispensed into a microtitre plate. After 15 min at room temperature, phosphatase was added to the mixture and the reaction was allowed to proceed for 60 min at room temperature. Reactions were quenched by the addition of okadaic acid, and transferred to PVDF membrane using the slot-blot apparatus and subjected to immunoblotting. Phosphatase sensitivity was similarly assessed by subjecting pAMPK to a phosphatase (PP2Aα) treatment using various concentrations and incubation times. The concentration of phosphatase was expressed as nmol of PP2Aα per minute per nmol of pAMPK in the reaction.
(§2) The membrane was blocked with Western Blot Blocking Buffer Reagent (Li-Cor) for 3–4 h at room temperature. […] Following the wash step, goat anti-rabbit 800CW (Rockland) at 1:10000 dilution was used as a secondary antibody. Blots were visualized using the Li-Cor Odyssey infrared imaging system and signal quantification was performed using the Odyssey software.
(§3) Data are mean (n=2), and curves were generated using best-fit values.

AMPK α1β2γ3 [1] = target: T2, AMPK α1β2γ3 (Homo sapiens, UniProt O43741+Q13131+Q9UGI9); experiment: as above; type: biochemical
T2 construct: Recombinant full-length AMPK heterotrimeric complexes α1β1γ1, α1β2γ1, α1β2γ3, α2β1γ1, α2β2γ1 and α2β2γ3 were cloned; 6X-His (N); made in house; host or cells: E. coli BL21-CodonPlus (DE3)-RIPL
T2 sequence (Q13131 whole entry): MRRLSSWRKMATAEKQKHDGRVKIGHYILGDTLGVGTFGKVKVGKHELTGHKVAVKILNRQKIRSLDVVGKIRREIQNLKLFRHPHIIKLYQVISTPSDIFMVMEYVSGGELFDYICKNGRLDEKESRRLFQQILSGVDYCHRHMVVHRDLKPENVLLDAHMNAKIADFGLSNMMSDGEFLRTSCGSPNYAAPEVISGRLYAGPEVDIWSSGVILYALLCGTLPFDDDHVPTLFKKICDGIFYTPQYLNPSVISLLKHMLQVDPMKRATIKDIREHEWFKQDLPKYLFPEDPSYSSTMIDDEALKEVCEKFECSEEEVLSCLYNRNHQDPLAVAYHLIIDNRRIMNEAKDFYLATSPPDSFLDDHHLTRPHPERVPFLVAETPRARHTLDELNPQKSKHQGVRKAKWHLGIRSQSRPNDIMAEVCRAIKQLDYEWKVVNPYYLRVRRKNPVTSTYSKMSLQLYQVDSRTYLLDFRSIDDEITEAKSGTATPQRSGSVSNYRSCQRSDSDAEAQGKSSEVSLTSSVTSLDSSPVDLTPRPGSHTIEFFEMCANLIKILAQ
T2 sequence (O43741 whole entry): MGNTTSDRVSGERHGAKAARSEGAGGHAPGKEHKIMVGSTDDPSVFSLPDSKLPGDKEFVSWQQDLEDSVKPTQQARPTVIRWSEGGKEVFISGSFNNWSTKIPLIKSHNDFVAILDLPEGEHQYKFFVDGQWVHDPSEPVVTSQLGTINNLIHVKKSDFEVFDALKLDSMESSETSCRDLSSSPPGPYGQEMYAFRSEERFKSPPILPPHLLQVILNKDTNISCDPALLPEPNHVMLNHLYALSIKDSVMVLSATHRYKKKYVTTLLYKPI
T2 sequence (Q9UGI9 whole entry): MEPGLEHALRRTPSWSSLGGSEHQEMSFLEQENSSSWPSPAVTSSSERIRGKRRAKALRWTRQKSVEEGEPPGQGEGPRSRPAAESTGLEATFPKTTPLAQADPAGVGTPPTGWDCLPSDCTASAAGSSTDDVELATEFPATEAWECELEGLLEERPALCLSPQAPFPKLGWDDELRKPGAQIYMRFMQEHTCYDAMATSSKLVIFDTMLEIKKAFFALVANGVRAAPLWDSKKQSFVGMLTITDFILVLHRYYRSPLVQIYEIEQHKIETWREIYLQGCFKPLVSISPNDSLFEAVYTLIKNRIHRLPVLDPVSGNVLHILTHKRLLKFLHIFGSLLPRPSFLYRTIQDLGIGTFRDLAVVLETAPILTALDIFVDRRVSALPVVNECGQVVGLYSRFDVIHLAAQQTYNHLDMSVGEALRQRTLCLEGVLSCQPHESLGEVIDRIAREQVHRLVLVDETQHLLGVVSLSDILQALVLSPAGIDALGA
Method: as §1, §2, §3

AMPK α2β2γ3 [2] = target: T3, AMPK α2β2γ3 (Homo sapiens, UniProt O43741+P54646+Q9UGI9); experiment: as above; type: biochemical
T3 construct: Recombinant full-length AMPK heterotrimeric complexes α1β1γ1, α1β2γ1, α1β2γ3, α2β1γ1, α2β2γ1 and α2β2γ3 were cloned; 6X-His (N); made in house; host or cells: E. coli BL21-CodonPlus (DE3)-RIPL
T3 sequence (P54646 whole entry): as the sequence (P54646 whole entry) above
T3 sequence (O43741 whole entry): as the sequence (O43741 whole entry) above
T3 sequence (Q9UGI9 whole entry): as the sequence (Q9UGI9 whole entry) above
Method: as §1, §2, §3

AMPK α1β2γ1 [3] = target: T4, AMPK α1β2γ1 (Homo sapiens, UniProt O43741+P54619+Q13131); experiment: as above; type: biochemical
T4 construct: Recombinant full-length AMPK heterotrimeric complexes α1β1γ1, α1β2γ1, α1β2γ3, α2β1γ1, α2β2γ1 and α2β2γ3 were cloned; 6X-His (N); made in house; host or cells: E. coli BL21-CodonPlus (DE3)-RIPL
T4 sequence (Q13131 whole entry): as the sequence (Q13131 whole entry) above
T4 sequence (O43741 whole entry): as the sequence (O43741 whole entry) above
T4 sequence (P54619 whole entry): as the sequence (P54619 whole entry) above
Method: as §1, §2, §3

AMPK α2β2γ1 [4] = target: T5, AMPK α2β2γ1 (Homo sapiens, UniProt O43741+P54619+P54646); experiment: as above; type: biochemical
T5 construct: Recombinant full-length AMPK heterotrimeric complexes α1β1γ1, α1β2γ1, α1β2γ3, α2β1γ1, α2β2γ1 and α2β2γ3 were cloned; 6X-His (N); made in house; host or cells: E. coli BL21-CodonPlus (DE3)-RIPL
T5 sequence (P54646 whole entry): as the sequence (P54646 whole entry) above
T5 sequence (O43741 whole entry): as the sequence (O43741 whole entry) above
T5 sequence (P54619 whole entry): as the sequence (P54619 whole entry) above
Method: as §1, §2, §3

AMPK α1β1γ1 [5] = target: T6, AMPK α1β1γ1 (Homo sapiens, UniProt P54619+Q13131+Q9Y478); experiment: as above; type: biochemical
T6 construct: Recombinant full-length AMPK heterotrimeric complexes α1β1γ1, α1β2γ1, α1β2γ3, α2β1γ1, α2β2γ1 and α2β2γ3 were cloned; 6X-His (N); made in house; host or cells: E. coli BL21-CodonPlus (DE3)-RIPL
T6 sequence (Q13131 whole entry): as the sequence (Q13131 whole entry) above
T6 sequence (Q9Y478 whole entry): as the sequence (Q9Y478 whole entry) above
T6 sequence (P54619 whole entry): as the sequence (P54619 whole entry) above
Method: as §1, §2, §3

BAP-tagged AMPK α1β1γ1 [6] = target: T7, BAP-tagged AMPK α1β1γ1 (Homo sapiens, UniProt P54619+Q13131+Q9Y478); design: method as in PMID 25066137; conditions: reported previously; cited from earlier work
T7 construct: Recombinant full-length AMPK heterotrimeric complexes α1β1γ1, α1β2γ1, α1β2γ3, α2β1γ1, α2β2γ1 and α2β2γ3 were cloned; 6X-His (N); AviTag (BAP); made in house; host or cells: E. coli (co-expressed with BirA)
T7 sequence (Q13131 whole entry): as the sequence (Q13131 whole entry) above
T7 sequence (Q9Y478 whole entry): as the sequence (Q9Y478 whole entry) above
T7 sequence (P54619 whole entry): as the sequence (P54619 whole entry) above

BAP-tagged AMPK α1β1γ1 [7] = target: T7, BAP-tagged AMPK α1β1γ1; experiment: SPR direct binding (Biacore); conditions: in the presence of 150 μM AMP, n=1, read-out: KD
Method: (§4) SPR experiments were performed on a Biacore™ 3000 instrument (GE Healthcare). BAP-tagged AMPK isoform (α1β1γ1, α1β2γ1, α2β2γ1, α2β2γ3) was captured on to a streptavidin sensor chip to levels ranging from 4000 to 6000 RU. […] Binding responses were processed using Scrubber 2 (BioLogic Software Pty Ltd) to zero, x-align, double reference and corrected for excluded volume effect of DMSO in the data. […] The compound was injected at a flow rate of 50 μl/min with total contact time of 120 s and dissociation time of 600 s. Rate parameters (kon, koff) and corresponding dissociation constant(KD=koff/kon) were determined by globally fitting all of the experimental data to a simple 1:1 interaction model using Biaeval software (GE Healthcare). To determine nt binding, 10 concentrations with 2-fold dilutions were tested in duplicate. The highest concentration tested was 2 mM. The compound was injected at a flow rate of 50 μl/min with total contact time of 120 s and dissociation time of 300 s. Equilibrium dissociation constant (KD) was determined using a steady-state affinity algorithm available within Scrubber.
(§5) We then compared the binding of nts (AMP, ADP and ATP) to α1β1γ1, α1β2γ1, α2β2γ1 and α2β2γ3 isoforms in the presence and absence of Mg^2+ and Stau, using SPR technique. […]

BAP-tagged AMPK α2β2γ1 = target: T8, BAP-tagged AMPK α2β2γ1 (Homo sapiens, UniProt O43741+P54619+P54646); experiment: SPR direct binding (Biacore); conditions: in the presence of 150 μM AMP, 37-1000 nM
T8 construct: Recombinant full-length AMPK heterotrimeric complexes α1β1γ1, α1β2γ1, α1β2γ3, α2β1γ1, α2β2γ1 and α2β2γ3 were cloned into a tricistronic vector system; 6X-His (N); made in house; host or cells: E. coli BL21-CodonPlus (DE3)-RIPL, co-expressed with BirA
T8 sequence (P54646 whole entry): as the sequence (P54646 whole entry) above
T8 sequence (O43741 whole entry): as the sequence (O43741 whole entry) above
T8 sequence (P54619 whole entry): as the sequence (P54619 whole entry) above
Method: as §4, §5

AMPK α1β2γ3 [8] = target: T2, AMPK α1β2γ3; experiment: TR-FRET allosteric activation assay; type: biochemical; conditions: 50 nM Cy5-SAMS, ATP at Km
Source text: (§6) After excitation at 320 nm, the energy from the Europium donor is transferred to the Cy5 acceptor which in turn generates light at 665 nm. The intensity of the signal is proportional to the level of AMPK-mediated Cy5 substrate phosphorylation. […] Non-specific emission obtained from samples containing all the reagents except enzyme was used to normalize the values.
(§7) The basal kinase activity of the pAMPK isoforms in the absence of activator was normalized to zero (baseline) and the changes in the enzyme activity in the presence of activator at different concentrations was compared with the basal activity.

AMPK α2β2γ3 [9] = target: T3, AMPK α2β2γ3; experiment: TR-FRET allosteric activation assay; type: biochemical; conditions: 50 nM Cy5-SAMS, ATP at Km
Source text: as §6, §7

AMPK α1β2γ1 [10] = target: T4, AMPK α1β2γ1; experiment: TR-FRET allosteric activation assay; type: biochemical; conditions: 50 nM Cy5-SAMS, ATP at Km
Source text: as §6, §7

AMPK α2β2γ1 [11] = target: T5, AMPK α2β2γ1; experiment: TR-FRET allosteric activation assay; type: biochemical; conditions: 50 nM Cy5-SAMS, ATP at Km
Source text: as §6, §7

AMPK α1β1γ1 [12] = target: T6, AMPK α1β1γ1; experiment: TR-FRET allosteric activation assay; type: biochemical; conditions: 50 nM Cy5-SAMS, ATP at Km
Source text: as §6, §7

[13] = target: AMPK heterotrimeric complex α1β2γ1 (UniProt Q13131)
Chain of AMPK heterotrimeric complex α1β2γ1 (Q13131 whole entry, chain 1 of 3): as the sequence (Q13131 whole entry) above
Chain of AMPK heterotrimeric complex α1β2γ1 (O43741 whole entry, chain 2 of 3, further chain): as the sequence (O43741 whole entry) above
Chain of AMPK heterotrimeric complex α1β2γ1 (P54619 whole entry, chain 3 of 3, further chain): as the sequence (P54619 whole entry) above

[14] = target: AMPK heterotrimeric complex α2β2γ1 (UniProt P54646)
Chain of AMPK heterotrimeric complex α2β2γ1 (P54646 whole entry, chain 1 of 3): as the sequence (P54646 whole entry) above
Chain of AMPK heterotrimeric complex α2β2γ1 (O43741 whole entry, chain 2 of 3, further chain): as the sequence (O43741 whole entry) above
Chain of AMPK heterotrimeric complex α2β2γ1 (P54619 whole entry, chain 3 of 3, further chain): as the sequence (P54619 whole entry) above

[15] = extent of protection (Figure 7)
[16] = activator concentration for half-maximal protection of pThr172/174, 10 nM AMPK, 40 nM PP2Aα, read-out: Protection pEC50 (converted)

Q: With `N#Cc1c(O)c2c(-c3ccc(-c4ccccc4O)cc3)csc2[nH]c1=O` [A769662] as the compound, how does the “enhanced protection of pThr172 compared with AMP” value (AMPK α2β1γ1) read?
A: 3 fold

Q: And the “protection of α-pThr172/174 from PP2Aα” value (AMPK α2β1γ1; [15])?
A: > 70%

Q: And the EC50 (AMPK α1β2γ3 [1]; [16])?
A: > 40000 nM

Q: And the “protection of α-pThr172/174 from PP2Aα” value (AMPK α1β2γ3 [1]; [15])?
A: > 70%

Q: What about the EC50 (AMPK α2β2γ3 [2]; [16]) of the same compound?
A: 5600 nM

Q: What about the “protection of α-pThr172/174 from PP2Aα” value (AMPK α2β2γ3 [2]; [15]) of the same compound?
A: > 70%

Q: What about the EC50 (AMPK α1β2γ1 [3]; [16]) of the same compound?
A: 4700 nM

Q: And the “protection of α-pThr172/174 from PP2Aα” value (AMPK α1β2γ1 [3]; [15])?
A: > 70%

Q: What about the EC50 (AMPK α2β2γ1 [4]; [16]) of the same compound?
A: 2320 nM

Q: And the “protection of α-pThr172/174 from PP2Aα” value (AMPK α2β2γ1 [4]; [15])?
A: > 70%

Q: What about the “enhanced protection of pThr172 compared with AMP” value (AMPK α1β1γ1 [5]) of the same compound?
A: 10 fold

Q: And the EC50 (AMPK α1β1γ1 [5]; [16])?
A: 46 nM

Q: And the “protection of α-pThr172/174 from PP2Aα” value (AMPK α1β1γ1 [5]; [15])?
A: > 70%

Q: What about the Kd (BAP-tagged AMPK α1β1γ1 [6]) of the same compound?
A: 48 nM

Q: What about the Kd (BAP-tagged AMPK α1β1γ1 [7]) of the same compound?
A: 30 nM

Q: And the SPR binding (BAP-tagged AMPK α2β2γ1)?
A: negligible; also recorded: could not detect any binding

Q: What about the AC50 (AMPK α1β2γ3 [8]) of the same compound?
A: > 40000 nM

Q: And the AC50 (AMPK α2β2γ3 [9])?
A: > 40000 nM

Q: What about the AC50 (AMPK α1β2γ1 [10]) of the same compound?
A: > 40000 nM

Q: And the AC50 (AMPK α2β2γ1 [11])?
A: > 40000 nM

Q: And the AC50 (AMPK α1β1γ1 [12])?
A: 72.2 nM

Q: For SAMS peptide, which Km for SAMS peptide (radiometric kinase assay, fixed ATP, no AMP) [13] is on record?
A: 32.3 µM

Q: What about the Km for SAMS peptide (radiometric kinase assay, fixed ATP, no AMP) [14] of the same compound?
A: 108 µM
